Source: patent publication US20110190309A1, “PHARMACEUTICAL PRODUCT COMPRISING A […] RECEPTOR ANTAGONIST AND A Beta2-ADRENOCEPTOR AGONIST” (priority 2008, published 2011)
Where “and” joins values, the source holds several entries; their conditions need not be identical. Equal values may be shown once. Where a name gives a salt, the structure may show the parent alone. Read-outs that look alike come from different tables or passages of the source.

Assays:
β2 = target: T1, β2 (Homo sapiens, UniProt P07550); experiment: Adrenergic β2 mediated cAMP production in H292 cells (AlphaScreen); assay type: cell-based; conditions: Intrinsic Activity as a fraction relative to the maximum activity of formoterol
T1 construct: endogenous in cells; host or cells: H292 cells
Method: H292 cells were grown in 225 cm2 flasks incubator at 37° C., 5% CO2 in RPMI medium containing, 10% (v/v) FBS (foetal bovine serum) and 2 mM L-glutamine.
Adherent H292 cells were removed from tissue culture flasks by treatment with Accutase™ cell detachment solution for 15 minutes. Flasks were incubated for 15 minutes in a humidified incubator at 37° C., 5% CO2. Detached cells were re-suspended in RPMI media (containing 10% (v/v) FBS and 2 mM L-glutamine) at 0.05×10^6 cells per mL. 5000 cells in 100 μL were added to each well of a tissue-culture-treated 96-well plate and the cells incubated overnight in a humidified incubator at 37° C., 5% CO2. The culture media was removed and cells were washed twice with 100 μL assay buffer and replaced with 50 μL assay buffer (HBSS solution containing 10 mM HEPES pH7.4 and 5 mM glucose). Cells were rested at room temperature for 20 minutes after which time 25 μL of rolipram (1.2 mM made up in assay buffer containing 2.4% (v/v) dimethylsulphoxide) was added. Cells were incubated with rolipram for 10 minutes after which time Compound A was added and the cells were incubated for 60 minutes at room temperature. The final rolipram concentration in the assay was 300 μM and final vehicle concentration was 1.6% (v/v) dimethylsulphoxide. The reaction was stopped by removing supernatants, washing once with 100 μL assay buffer and replacing with 50 μL lysis buffer. The cell monolayer was frozen at −80° C. for 30 minutes (or overnight).
The concentration of cAMP (cyclic adenosine monophosphate) in the cell lysate was determined using AlphaScreen™ methodology. […] The AlphaScreen™ signal was measured using an EnVision spectrophotometer (Perkin-Elmer Inc.) with the recommended manufacturer's settings. cAMP concentrations were determined by reference to a calibration curve determined in the same experiment using standard cAMP concentrations. […] Intrinsic Activity was expressed as a fraction relative to the maximum activity determined for formoterol in each experiment.

[1] = target: T2, human muscarinic receptors (M3) (Homo sapiens, UniProt P20309); experiment: Muscarinic Receptor Radioligand Binding Assay ([3H]-NMS); conditions: human M3 membranes
T2 construct: purchased
Method: The inhibitory effects of compounds of the muscarinic antagonists were determined by a Muscarinic Receptor Radioligand Binding Assay. Radioligand binding studies utilising [^3H]-N-methyl scopolamine ([^3H]-NMS) and commercially available cell membranes expressing the human muscarinic receptors (M2 or M3) were used to assess the affinity of muscarinic antagonists for M2 and M3 receptors. Membranes in TRIS buffer were incubated in 96-well plates with [^3H]-NMS and M3 antagonist at various concentrations for 3 hours. Membranes and bound radioligand were then harvested by filtration and allowed to dry overnight. Scintillation fluid was then added and the bound radioligand counted using a Can berra Packard Topcount scintillation counter

[2] = Gravimetric Vapour Sorption (GVS); assay type: physicochemical; conditions: at 80% RH
Method: Gravimetric Vapour Sorption (GVS) profiles were measured using a Surface Measurements Systems Dynamic Vapour Sorption DVS-1, or DVS Advantage GVS instruments. The solid sample ca. 1-5 mg was placed into a glass or wire mesh vessel and the weight of the sample was recorded during a dual cycle step method (40 to 90 to 0 to 90 to 0% relative humidity (RH), in steps of 10% RH).

guinea pig trachea = experiment: Bronchodilator activity in the guinea pig isolated tracheal ring preparation; conditions: methacholine 1 μM, 60 min, mean±s.e.mean
Method: Guinea pigs (300-500 g) were killed by cervical dislocation and the trachea was isolated. The trachea was cut into segments 2-3 cartilage rings in width and suspended in 10 ml organ baths in modified Krebs' solution (mM; NaCl, 90; NaHCO3, 45; KCl, 5; MgSO4.7H2O, 0.5; Na2HPO4.2H2O, 1; CaCl2, 2.25; glucose, 10; pH 7.4 gassed with 5% CO2, 95% O2 at 37° C.). The tracheal rings were attached to an isometric force transducer for the measurement of isometric tension. The tissues were washed and a force of 1 g was applied to each tissue. The rings were contracted with methacholine (1 μM). Once the contraction had reached a plateau, vehicle (0.01% DMSO in distilled H2O), indacaterol (10 nM), N-[2-(Diethylamino)ethyl]-N-(2-{[2-(4-hydroxy-2-oxo-2,3-dihydro-1,3-benzothiazol-7-yl)ethyl]amino}ethyl)-3-[2-(1-naphthyl)ethoxy]propanamide dihydrobromide (10 nM), N-Cyclohexyl-N^3-[2-(3-fluorophenyl)ethyl]-N-(2-{[2-(4-hydroxy-2-oxo-2,3-dihydro-1,3-benzothiazol-7-yl)ethyl]amino}ethyl)-(3-alaninamide di-D-mandelate salt (1 nM), (R)-3-(1-Phenyl-cycloheptanecarbonyloxy)-1-(pyridin-2-ylcarbamoylmethyl)-1-azonia-bicyclo[2.2.2]octane bromide (1 nM), a combination of (R)-3-(1-Phenyl-cycloheptanecarbonyloxy)-1-(pyridin-2-ylcarbamoylmethyl)-1-azonia-bicyclo[2.2.2]octane bromide (1 nM) and indacaterol (10 nM), a combination of N-[2-(Diethylamino)ethyl]-N-(2-{[2-(4-hydroxy-2-oxo-2,3-dihydro-1,3-benzothiazol-7-yl)ethyl]amino}ethyl)-3-[2-(1-naphthyl)ethoxy]propanamide dihydrobromide (10 nM) and (R)-3-(1-Phenyl-cycloheptanecarbonyloxy)-1-(pyridin-2-ylcarbamoylmethyl)-1-azonia-bicyclo[2.2.2]octane bromide (1 nM) and, or a combination of N-Cyclohexyl-N^3-[2-(3-fluorophenyl)ethyl]-N-(2-{[2-(4-hydroxy-2-oxo-2,3-dihydro-1,3-benzothiazol-7-yl)ethyl]amino}ethyl)-β-alaninamide di-D-mandelate salt (1 nM) and (R)-3-(1-Phenyl-cycloheptanecarbonyloxy)-1-(pyridin-2-ylcarbamoylmethyl)-1-azonia-bicyclo[2.2.2]octane bromide (1 nM) was added and the tissue left for 60 min. The tension was measured in each ring at 60 min following compound addition and was expressed as a % relaxation of the constriction to methacholine (1 μM) (mean±s.e.mean). Data were collected using the Chart 4 software (ADInstruments, Charlgrove, UK).

[3] = class symbols of M3 Binding IC50, read-out: M3 pIC50 (converted)

T2 sequence (P20309 whole entry): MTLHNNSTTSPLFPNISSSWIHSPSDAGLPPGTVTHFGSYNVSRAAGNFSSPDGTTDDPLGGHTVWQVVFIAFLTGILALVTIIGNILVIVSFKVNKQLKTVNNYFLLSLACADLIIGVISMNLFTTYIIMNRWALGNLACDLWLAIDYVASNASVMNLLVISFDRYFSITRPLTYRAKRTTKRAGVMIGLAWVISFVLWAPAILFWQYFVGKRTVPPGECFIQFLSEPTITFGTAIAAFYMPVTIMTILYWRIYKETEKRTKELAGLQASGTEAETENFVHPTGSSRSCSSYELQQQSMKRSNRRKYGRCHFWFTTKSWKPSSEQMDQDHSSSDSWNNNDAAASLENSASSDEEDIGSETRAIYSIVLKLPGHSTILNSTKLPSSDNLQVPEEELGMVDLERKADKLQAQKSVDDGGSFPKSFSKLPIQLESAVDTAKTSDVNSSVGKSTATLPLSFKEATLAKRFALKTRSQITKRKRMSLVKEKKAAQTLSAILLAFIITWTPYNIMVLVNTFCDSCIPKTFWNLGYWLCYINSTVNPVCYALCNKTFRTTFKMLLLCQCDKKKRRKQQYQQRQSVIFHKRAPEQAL
T1 sequence (P07550 whole entry): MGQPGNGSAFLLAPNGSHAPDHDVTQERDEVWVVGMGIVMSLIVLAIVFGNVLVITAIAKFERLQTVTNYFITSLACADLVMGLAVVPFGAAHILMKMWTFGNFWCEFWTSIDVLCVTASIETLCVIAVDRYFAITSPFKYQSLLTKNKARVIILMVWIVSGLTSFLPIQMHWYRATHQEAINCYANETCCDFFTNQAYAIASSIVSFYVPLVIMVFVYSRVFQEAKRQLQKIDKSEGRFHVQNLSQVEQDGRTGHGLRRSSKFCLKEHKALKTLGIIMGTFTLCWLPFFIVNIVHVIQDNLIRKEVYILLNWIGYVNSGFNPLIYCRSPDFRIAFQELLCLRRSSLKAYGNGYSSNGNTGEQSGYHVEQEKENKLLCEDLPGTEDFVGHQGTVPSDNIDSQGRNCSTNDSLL

Question: With CCN(CC)CCN(CCNCCc1ccc(O)c2[nH]c(=O)sc12)C(=O)CCOCCc1cccc(Cl)c1 [BA2, N-[2-(Diethylamino)ethyl]-N-(2-{[2-(4-hydroxy-2-oxo-2,3-dihydro-1,3-benzothiazol-7-yl)ethyl]amino}ethyl)-3-[2-(3-chlorophenyl)ethoxy]propanamide dihydrobromide] as the compound, how does the “β2 Int Act” value (β2) read?
Answer: 0.7

Question: For O=C(C[N+]12CCC(CC1)[C@@H](OC(=O)C1(c3ccccc3)CCCCCC1)C2)Nc1cnccn1.[Br-] [Example 1, (R)-3-(1-Phenyl-cycloheptanecarbonyloxy)-1-(pyrazin-2-ylcarbamoylmethyl)-1-azonia-bicyclo[2.2.2]octane bromide], which IC50 ([1]; read-out: M3 pIC50 (converted)) is on record?
Answer: 0.0794 nM

Question: And the GVS weight increase [2]?
Answer: 3 % w/w

Question: Which GVS weight increase [2] does the source give for O=C(C[N+]12CCC(CC1)[C@@H](OC(=O)C1(c3ccccc3)CCCCCC1)C2)Nc1cnccn1.[Cl-] [Example 2, (R)-3-(1-Phenyl-cycloheptanecarbonyloxy)-1-(pyrazin-2-ylcarbamoylmethyl)-1-azonia-bicyclo[2.2.2]octane chloride] here?
Answer: 9 % w/w

Question: Which results are given for O=C(C[N+]12CCC(CC1)[C@@H](OC(=O)C1(c3ccccc3)CCCCCC1)C2)Nc1ccccn1.[Cl-] [Example 3, (R)-3-(1-Phenyl-cycloheptanecarbonyloxy)-1-(pyridin-2-ylcarbamoylmethyl)-1-azonia-bicyclo[2.2.2]octane chloride]?
Answer: IC50 [1, 3]: < 2 nM; GVS weight increase [2]: negligible

Question: What does the source list for O=C(C[N+]12CCC(CC1)[C@@H](OC(=O)C1(c3ccccc3)CCCCCC1)C2)Nc1ccccn1.[Br-] [Example 4, (R)-3-(1-Phenyl-cycloheptanecarbonyloxy)-1-(pyridin-2-ylcarbamoylmethyl)-1-azonia-bicyclo[2.2.2]octane bromide]?
Answer: percentage relaxation of the constriction to methacholine (guinea pig trachea; 1 nM, listed as Compound Z): 9±9.4%; percentage relaxation of the constriction to methacholine (guinea pig trachea; 1 nM, listed as compound Z): 9±4.3% and 5±1.8%; GVS weight increase [2]: negligible

Question: Which GVS weight increase [2] does the source give for O=C(C[N+]12CCC(CC1)[C@@H](OC(=O)C1(c3ccccc3)CCCCCC1)C2)Nc1cnccn1 [Example 5, (R)-3-(1-Phenyl-cycloheptanecarbonyloxy)-1-(pyrazin-2-ylcarbamoylmethyl)-1-azonia-bicyclo[2.2.2]octane 1-hydroxy-naphthalene-2-sulfonate] here?
Answer: ~0.3 % w/w

Question: With O=C(C[N+]12CCC(CC1)[C@@H](OC(=O)C1(c3ccccc3)CCCCCC1)C2)Nc1cnccn1 [Example 6, (R)-3-(1-Phenyl-cycloheptanecarbonyloxy)-1-(pyrazin-2-ylcarbamoylmethyl)-1-azonia-bicyclo[2.2.2]octane 2,5-dichloro-benzenesulfonate] as the compound, how does the GVS weight increase [2] read?
Answer: ~0.2 % w/w

Question: For O=C(C[N+]12CCC(CC1)[C@@H](OC(=O)C1(c3ccccc3)CCCCCC1)C2)Nc1cnccn1 [Example 7, (R)-3-(1-Phenyl-cycloheptanecarbonyloxy)-1-(pyrazin-2-ylcarbamoylmethyl)-1-azonia-bicyclo[2.2.2]octane hemi-naphthalene-1,5-disulfonate], which GVS weight increase [2] is on record?
Answer: 1.6 % w/w

Question: For O=C(C[N+]12CCC(CC1)[C@@H](OC(=O)C1(c3cccc(F)c3)CCCCCC1)C2)Nc1cnccn1 [Example 8, (R)-3-[1-(3-Fluoro-phenyl)-cycloheptanecarbonyloxy]-1-(pyrazin-2-ylcarbamoylmethyl)-1-azonia-bicyclo[2.2.2]octane bromide], which IC50 [1, 3] is on record?
Answer: < 2 nM

Question: With O=C(C[N+]12CCC(CC1)[C@@H](OC(=O)C1(c3cccc(F)c3)CCCCCC1)C2)Nc1ccon1 [Example 9, (R)-3-[1-(3-Fluoro-phenyl)-cycloheptanecarbonyloxy]-1-(isoxazol-3-ylcarbamoylmethyl)-1-azonia-bicyclo[2.2.2]octane bromide] as the compound, how does the IC50 [1, 3] read?
Answer: < 2 nM

Question: For O=C(C[N+]12CCC(CC1)[C@@H](OC(=O)C1(c3ccccc3)CCCCCC1)C2)Nc1ccc(F)cn1 [Example 10, (R)-1-[(5-Fluoro-pyridin-2-ylcarbamoyl)-methyl]-3-(1-phenyl-cycloheptanecarbonyloxy)-1-azonia-bicyclo[2.2.2]octane chloride], which IC50 [1, 3] is on record?
Answer: < 2 nM

Question: With Cc1cc(NC(=O)C[N+]23CCC(CC2)[C@@H](OC(=O)C2(c4ccccc4)CCCCCC2)C3)ccn1 [Example 11, (R)-1-[(2-Methyl-pyridin-4-ylcarbamoyl)-methyl]-3-(1-phenyl-cycloheptanecarbonyloxy)-1-azonia-bicyclo[2.2.2]octane chloride] as the compound, how does the IC50 [1, 3] read?
Answer: < 2 nM

Question: Which IC50 [1, 3] does the source give for O=C(C[N+]12CCC(CC1)[C@@H](OC(=O)C1(c3ccccc3)CCCCCC1)C2)Nc1cccnc1 [Example 12, (R)-3-(1-Phenyl-cycloheptanecarbonyloxy)-1-(pyridin-3-ylcarbamoylmethyl)-1-azonia-bicyclo[2.2.2]octane chloride] here?
Answer: < 2 nM

Question: Which IC50 [1, 3] does the source give for O=C(C[N+]12CCC(CC1)[C@@H](OC(=O)C1(c3ccccc3)CCCCCC1)C2)Nc1cccnn1 [Example 13, (R)-3-(1-Phenyl-cycloheptanecarbonyloxy)-1-(pyridazin-3-ylcarbamoylmethyl)-1-azonia-bicyclo[2.2.2]octane bromide] here?
Answer: < 2 nM

Question: Which GVS weight increase [2] does the source give for O=C(C[N+]12CCC(CC1)[C@@H](OC(=O)C1(c3ccccc3)CCCCCC1)C2)Nc1ccccn1 [Example 14, (R)-3-(1-Phenyl-cycloheptanecarbonyloxy)-1-(pyridin-2-ylcarbamoylmethyl)-1-azonia-bicyclo[2.2.2]octane hemi-naphthalene-1,5-disulfonate] here?
Answer: 1 % w/w

Question: For CCc1cc2c(cc1CC)CC(NC[C@H](O)c1ccc(O)c3[nH]c(=O)ccc13)C2 [indacaterol, reference compound], which “percentage relaxation of the constriction to methacholine” value (guinea pig trachea; 10 nM) is on record?
Answer: 24±6.9%

Question: For “N-Cyclohexyl-N^3-[2-(3-fluorophenyl)ethyl]-N-(2-{[2-(4-hydroxy-2-oxo-2,3-dihydro-1,3-benzothiazol-7-yl)ethyl]amino}ethyl)-β-alaninamide di-D-mandelate [compound W]”, which “percentage relaxation of the constriction to methacholine” value (guinea pig trachea; 1 nM) is on record?
Answer: 23±10%
